What follows are compounds tested against Aurora B/INCENP (Homo sapiens, UniProt Q96GD4) (assay: Determination of inhibition of AIK: Aurora B/INCENP direct fluorescence polarization (IMAP) assay). Details: 10 uM ATP, 0.8 nM Aurora B/INCENP; values given as bins; read-out: IC50 of Exemplified Compounds Against AIK B.
Type: biochemical

Aurora B/INCENP, sequence (Q96GD4 whole entry): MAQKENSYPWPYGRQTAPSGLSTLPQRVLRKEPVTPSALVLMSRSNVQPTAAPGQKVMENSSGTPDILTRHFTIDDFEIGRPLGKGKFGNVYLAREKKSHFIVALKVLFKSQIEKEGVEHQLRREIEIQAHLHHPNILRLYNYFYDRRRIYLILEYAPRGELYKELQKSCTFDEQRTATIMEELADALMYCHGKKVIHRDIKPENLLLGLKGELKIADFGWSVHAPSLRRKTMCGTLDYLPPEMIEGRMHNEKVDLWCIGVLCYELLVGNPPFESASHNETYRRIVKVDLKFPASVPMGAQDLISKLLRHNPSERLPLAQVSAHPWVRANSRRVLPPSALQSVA
Aurora B/INCENP, sequence (Q9NQS7 whole entry partner): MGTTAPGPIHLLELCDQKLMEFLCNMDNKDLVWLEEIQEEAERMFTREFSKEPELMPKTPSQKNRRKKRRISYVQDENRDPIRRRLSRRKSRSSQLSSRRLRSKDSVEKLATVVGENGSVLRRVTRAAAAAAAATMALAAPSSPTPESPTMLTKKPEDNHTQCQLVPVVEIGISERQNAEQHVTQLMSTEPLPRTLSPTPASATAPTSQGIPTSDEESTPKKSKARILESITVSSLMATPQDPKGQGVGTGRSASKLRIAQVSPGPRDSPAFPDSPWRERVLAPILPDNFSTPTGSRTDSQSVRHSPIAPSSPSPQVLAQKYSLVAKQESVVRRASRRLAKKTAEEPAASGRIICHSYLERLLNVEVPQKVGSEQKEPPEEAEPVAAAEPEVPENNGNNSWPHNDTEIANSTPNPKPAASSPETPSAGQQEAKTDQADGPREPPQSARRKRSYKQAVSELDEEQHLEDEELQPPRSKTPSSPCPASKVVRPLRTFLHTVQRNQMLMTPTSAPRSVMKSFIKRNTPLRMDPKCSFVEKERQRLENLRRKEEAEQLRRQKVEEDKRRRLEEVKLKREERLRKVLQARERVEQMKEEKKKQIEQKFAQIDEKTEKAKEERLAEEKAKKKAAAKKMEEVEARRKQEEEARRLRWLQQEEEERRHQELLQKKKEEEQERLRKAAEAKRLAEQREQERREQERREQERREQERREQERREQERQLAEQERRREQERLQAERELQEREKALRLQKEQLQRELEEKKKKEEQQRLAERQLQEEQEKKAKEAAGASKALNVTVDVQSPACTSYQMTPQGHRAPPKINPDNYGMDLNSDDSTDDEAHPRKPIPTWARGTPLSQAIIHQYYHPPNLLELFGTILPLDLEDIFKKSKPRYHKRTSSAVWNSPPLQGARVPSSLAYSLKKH

IC50 [nM]	Structure (SMILES)
5.6 to 8.5	CCOc1ccc(-c2cccc(S(=O)(=O)CC)c2)c2c1[nH]c1ncc(C)cc12 [Compound 171, 8-ethoxy-5-(3-(ethylsulfonyl)phenyl)-3-methyl-9H-pyrido[2,3-b]indole]
5.6 to 8.5	CCS(=O)(=O)c1cccc(-c2ccc(OC(F)F)c3[nH]c4ncc(C)cc4c23)c1 [Compound 172, 8-(difluoromethoxy)-5-(3-(ethylsulfonyl)phenyl)-3-methyl-9H-pyrido[2,3-b]indole]
5.6 to 8.5	CCS(=O)(=O)c1cccc(-c2ccc(OCC(F)(F)F)c3[nH]c4ncc(C)cc4c23)c1 [Compound 173, 5-(3-(ethylsulfonyl)phenyl)-3-methyl-8-(2,2,2-trifluoroethoxy)-9H-pyrido[2,3-b]indole]
8.6 to 13	CCS(=O)(=O)c1cccc(-c2ccc(OCC3CCN(C)CC3)c3[nH]c4ncc(C)cc4c23)c1 [Compound 177, 5-(3-(ethylsulfonyl)phenyl)-3-methyl-8-((1-methylpiperidin-4-yl)methoxy)-9H-pyrido[2,3-b]indole]
> 13	Cc1cnc2[nH]c3c(OCC4CCN(C)CC4)ccc(-c4cccc(C(=O)NC5CC5)c4)c3c2c1 [Compound 178, N-cyclopropyl-3-(3-methyl-8-((1-methylpiperidin-4-yl)methoxy)-9H-pyrido[2,3-b]indol-5-yl)benzamide]
5.6 to 8.5	Cc1cnc2[nH]c3c(OCC4CCN(C)CC4)ccc(-c4cccc(S(=O)(=O)C5CC5)c4)c3c2c1 [Compound 179, 5-(3-(cyclopropylsulfonyl)phenyl)-3-methyl-8-((1-methylpiperidin-4-yl)methoxy)-9H-pyrido[2,3-b]indole]
8.6 to 13	CNS(=O)(=O)c1cccc(-c2ccc(OCC3CCN(C)CC3)c3[nH]c4ncc(C)cc4c23)c1 [Compound 180, N-methyl-3-(3-methyl-8-((1-methylpiperidin-4-yl)methoxy)-9H-pyrido[2,3-b]indole-5-yl)benzenesulfonamide]
8.6 to 13	Cc1cnc2[nH]c3c(OCC4CCN(C)CC4)ccc(-c4cccc(S(=O)(=O)N(C)C)c4)c3c2c1 [Compound 181, N,N-dimethyl-3-(3-methyl-8-((1-methylpiperidin-4-yl)methoxy)-9H-pyrido[2,3-b]indole-5-yl)benzenesulfonamide]
5.6 to 8.5	Cc1cnc2[nH]c3c(OCC4CCN(C)CC4)ccc(-c4cccc(NC(=O)C5CC5)c4)c3c2c1 [Compound 182, N-(3-(3-methyl-8-((1-methylpiperidin-4-yl)methoxy)-9H-pyrido[2,3-b]indol-5-yl)phenyl)cyclopropanecarboxamide]
> 13	CCSc1cccc(-c2ccc(OCC3CCN(C)CC3)c3[nH]c4ncc(C)cc4c23)c1 [Compound 183]
> 13	CCOc1cccc(-c2ccc(OCC3CCN(C)CC3)c3[nH]c4ncc(C)cc4c23)c1 [Compound 184, 5-(3-ethoxyphenyl)-3-methyl-8-((1-methylpiperidin-4-yl)methoxy)-9H-pyrido[2,3-b]indole]
4 to 5.5	CCS(=O)(=O)c1cccc(-c2ccc(OCC3CCNCC3)c3[nH]c4ncc(C)cc4c23)c1 [Compound 185, 5-(3-(ethylsulfonyl)phenyl)-3-methyl-8-(piperidin-4-ylmethoxy)-9H-pyrido[2,3-b]indole]
> 13	CCS(=O)(=O)c1cccc(-c2ccc(OC[C@H]3CCN(C)C3)c3[nH]c4ncc(C)cc4c23)c1 [Compound 186, (S)-5-(3-(ethylsulfonyl)phenyl)-3-methyl-8-((1-methylpyrrolidin-3-yl)methoxy)-9H-pyrido[2,3-b]indole]
> 13	CCS(=O)(=O)c1cccc(-c2ccc(OC[C@@H]3CCN(C)C3)c3[nH]c4ncc(C)cc4c23)c1 [Compound 187, (R)-5-(3-(ethylsulfonyl)phenyl)-3-methyl-8-((1-methylpyrrolidin-3-yl)methoxy)-9H-pyrido[2,3-b]indole]
8.6 to 13	CCS(=O)(=O)c1cccc(-c2ccc(OC[C@@H]3CCCN3C)c3[nH]c4ncc(C)cc4c23)c1 [Compound 188, (S)-5-(3-(ethylsulfonyl)phenyl)-3-methyl-8-((1-methylpyrrolidin-2-yl)methoxy)-9H-pyrido[2,3-b]indole]
8.6 to 13	CCS(=O)(=O)c1cccc(-c2ccc(OC[C@H]3CCNC3)c3[nH]c4ncc(C)cc4c23)c1 [Compound 189, (S)-5-(3-(ethylsulfonyl)phenyl)-3-methyl-8-(pyrrolidin-3-ylmethoxy)-9H-pyrido[2,3-b]indole]
> 13	CCS(=O)(=O)c1cccc(-c2ccc(OC[C@@H]3CCNC3)c3[nH]c4ncc(C)cc4c23)c1 [Compound 190, (R)-5-(3-(ethylsulfonyl)phenyl)-3-methyl-8-(pyrrolidin-3-ylmethoxy)-9H-pyrido[2,3-b]indole]
4 to 5.5	Cc1cnc2[nH]c3c(OCCCN(C)C)ccc(-c4cccc(S(=O)(=O)C5CC5)c4)c3c2c1 [Compound 194, 3-(5-(3-(cyclopropylsulfonyl)phenyl)-3-methyl-9H-pyrido[2,3-b]indol-8-yloxy)-N,N-dimethylpropan-1-amine]
> 13	Cc1cnc2[nH]c3c(OCCCN(C)C)ccc(-c4cccc(NC(=O)C5CC5)c4)c3c2c1 [Compound 195, N-(3-(8-(3-(dimethylamino)propoxy)-3-methyl-9H-pyrido[2,3-b]indol-5-yl)phenyl)cyclopropanecarboxamide]

IC50 [nM]	Structure (SMILES)
5.6 to 8.5	CCS(=O)(=O)c1cccc(-c2ccc(OCC3CCN(C)CC3)c3[nH]c4ncc(Cl)cc4c23)c1 [Compound 200, 3-chloro-5-(3-(ethylsulfonyl)phenyl)-8-((1-methylpiperidin-4-yl)methoxy)-9H-pyrido[2,3-b]indole]
< 4	CCS(=O)(=O)c1cccc(-c2ccc(OCC3CCNCC3)c3[nH]c4ncc(Cl)cc4c23)c1 [Compound 201, 3-chloro-5-(3-(ethylsulfonyl)phenyl)-8-(piperidin-4-ylmethoxy)-9H-pyrido[2,3-b]indole]
8.6 to 13	CCS(=O)(=O)c1cccc(-c2ccc(OCC3CCN(C)CC3)c3[nH]c4ncc(C(F)(F)F)cc4c23)c1 [Compound 202, 5-(3-(ethylsulfonyl)phenyl)-8-((1-methylpiperidin-4-yl)methoxy)-3-(trifluoromethyl)-9H-pyrido[2,3-b]indole]
5.6 to 8.5	CCS(=O)(=O)c1cccc(-c2ccc(OCC3CCN(C)CC3)c3[nH]c4ncc(C#N)cc4c23)c1 [Compound 203, 5-(3-(ethylsulfonyl)phenyl)-8-((1-methylpiperidin-4-yl)methoxy)-9H-pyrido[2,3-b]indole-3-carbonitrile]
8.6 to 13	CCS(=O)(=O)c1cccc(-c2cc(F)c(OCCN(C)C)c3[nH]c4ncc(C)cc4c23)c1 [Compound 204, 2-(5-(3-(ethylsulfonyl)phenyl)-7-fluoro-3-methyl-9H-pyrido[2,3-b]indol-8-yloxy)-N,N-dimethylethanamine]
< 4	CCS(=O)(=O)c1cccc(-c2cc(F)c(OCCCN(C)C)c3[nH]c4ncc(Cl)cc4c23)c1 [Compound 205, 3-(3-chloro-5-(3-(ethylsulfonyl)phenyl)-7-fluoro-9H-pyrido[2,3-b]indol-8-yloxy)-N,N-dimethylpropan-1-amine]
4 to 5.5	CCS(=O)(=O)c1cccc(-c2ccc(OCCCN(C)C)c3[nH]c4ncc(C)cc4c23)c1 [Compound 206, 3-(5-(3-(ethylsulfonyl)phenyl)-3-methyl-9H-pyrido[2,3-b]indol-8-yloxy)-N,N-dimethylpropan-1-amine]
> 13	CCS(=O)(=O)c1cccc(-c2ccc(OCCN(C)C)c3[nH]c4ncc(C)cc4c23)c1 [Compound 207, 2-(5-(3-(ethylsulfonyl)phenyl)-3-methyl-9H-pyrido[2,3-b]indol-8-yloxy)-N,N-dimethylethanamine]
8.6 to 13	CCS(=O)(=O)c1cccc(-c2ccc(OCCOC)c3[nH]c4ncc(C)cc4c23)c1 [Compound 208, 5-(3-(ethylsulfonyl)phenyl)-8-(2-methoxyethoxy)-3-methyl-9H-pyrido[2,3-b]indole]
< 4	CCS(=O)(=O)c1cccc(-c2ccc(OCC#N)c3[nH]c4ncc(C)cc4c23)c1 [Compound 209, 2-(5-(3-(ethylsulfonyl)phenyl)-3-methyl-9H-pyrido[2,3-b]indol-8-yloxy)acetonitrile]
> 13	CCS(=O)(=O)c1cccc(-c2ccc(OCCC#N)c3[nH]c4ncc(C)cc4c23)c1 [Compound 210, 3-(5-(3-(ethylsulfonyl)phenyl)-3-methyl-9H-pyrido[2,3-b]indol-8-yloxy)propanenitrile]
5.6 to 8.5	CCS(=O)(=O)c1cccc(-c2ccc(O[C@H](C)CO)c3[nH]c4ncc(C)cc4c23)c1 [Compound 212, (R)-2-(5-(3-(ethylsulfonyl)phenyl)-3-methyl-9H-pyrido[2,3-b]indol-8-yloxy)propan-1-ol]
4 to 5.5	CCS(=O)(=O)c1cccc(-c2ccc(O[C@@H](C)CO)c3[nH]c4ncc(C)cc4c23)c1 [Compound 213, (S)-2-(5-(3-(ethylsulfonyl)phenyl)-3-methyl-9H-pyrido[2,3-b]indol-8-yloxy)propan-1-ol]
5.6 to 8.5	CCS(=O)(=O)c1cccc(-c2ccc(OCCO)c3[nH]c4ncc(C)cc4c23)c1 [Compound 216, 2-(5-(3-(ethylsulfonyl)phenyl)-3-methyl-9H-pyrido[2,3-b]indol-8-yloxy)ethanol]
4 to 5.5	CCS(=O)(=O)c1cccc(-c2ccc(OCCCO)c3[nH]c4ncc(C)cc4c23)c1 [Compound 217, 3-(5-(3-(ethylsulfonyl)phenyl)-3-methyl-9H-pyrido[2,3-b]indol-8-yloxy)propan-1-ol]
< 4	CCS(=O)(=O)c1cccc(-c2ccc(OC)c3[nH]c4ncc(Cl)cc4c23)c1 [Compound 218]
4 to 5.5	CCS(=O)(=O)c1cccc(-c2ccc(OCCCN(C)C)c3[nH]c4ncc(Cl)cc4c23)c1 [Compound 220, 3-(3-chloro-5-(3-(ethylsulfonyl)phenyl)-9H-pyrido[2,3-b]indol-8-yloxy)-N,N-dimethylpropan-1-amine]
5.6 to 8.5	CCN(CC)CCOc1ccc(-c2cccc(S(=O)(=O)CC)c2)c2c1[nH]c1ncc(Cl)cc12 [Compound 221, 2-(3-chloro-5-(3-(ethylsulfonyl)phenyl)-9H-pyrido[2,3-b]indol-8-yloxy)-N,N-diethylethanamine]

From patent publication US20090312288A1 (TAKEDA PHARMACEUTICAL COMPANY LIMITED, priority 2008, published 2009)
